This series is described as follows: Host toxicity monitoring in the CWR22Rv1 xenograft study (body weight, health status). Format: in vivo, male NOD SCID mice. The protocol: Following the in vitro studies and determination of the PK parameters, we then investigated the relative efficacy. Gal and the NGGAs in vivo using difficult-to-treat castration-resistant CWR22Rv1 xenografts. Given the enhanced IP and PO PK parameters of VNPP414 and VNPP433-3β over Gal, we decided to use lower doses of the new analogs compared to the previous Gal doses (200 mg/kg, IP/PO). Gal (200 mg/kg) served as positive control, while ENZ (25 mg/kg) administered PO was used as negative control. Male NOD SCID mice bearing CWR22Rv1 tumors were treated with vehicle, ENZ, Gal, VNPP414, and VNPP433-3β for 16 days as described in the Methods and Materials Section. […] In contrast, Gal and the NGGAs caused statistically significant tumor growth inhibition (TGI). […] It is notable that VNPP433-3β (at 7.5- and 15-fold lower molar doses) and VNPP414 (at 4-fold lower molar dose) are more efficacious than Gal. In general, no host toxicities were observed, as monitored by changes in animal body weight (Figure 7C). […]

For the molecule `C[C@]12CC[C@H](n3ccnc3)CC1=CCC1C2CC[C@]2(C)C(n3cnc4ccccc43)=CCC12` (stereo partly drawn) [VNPP433-3β], the mortality entry (30 mg/kg PO once daily group, 5 mice) is on record as “one mouse died on day 16”. Moreover, for the setting “CWR22Rv1 tumor-bearing mice, PO, 16 days”, the “host toxicity, monitored by changes in animal body weight” value is “no apparent host toxicity”.
